Drawing on patent publication US20160002204A1 (Board of Regents, The University of Texas System, priority 2014, published 2016), this text covers EC50 and IC50 for 18 compounds.

Assay [1] has as its system A549 cells. Kind of assay: A549 proliferation (viability) assay, Cell Titer Fluor, 72 hours. In kind it is cell-based. The following applies: Homo sapiens. The procedure:
A549 cells were routinely maintained in RPMI 1640 media (Gibco catalog number 11875-093) supplemented with 10% dialyzed fetal bovine serum using a humidified incubator (37° C., 5% CO2 and ambient O2). In preparation for the viability assay, cells were inoculated into 384-well black CulturPlates (Perkin Elmer) at a density of 1000 cells/well in a volume of 40 uL. Following a 24-hour incubation at 37° C., 5% CO2 and ambient O2, cells were treated with compound (10 uL) in a final DMSO concentration of 0.5% (v/v). The microplates were then incubated for 72 hours (37° C., 5% CO2 and ambient O2). Cell Titer Fluor (Promega) was subsequently added (10 uL of 6× reagent) and mixed for 15 minutes at room temperature. The plates were then incubated for 30 minutes (37° C., 5% CO2 and ambient O2) and fluorescence was subsequently read on the Perkin Elmer Envision plate reader. EC50 values were calculated using a four-parameter logistic curve fit.

The target in assay [2] is T1, GLS1 (purified recombinant human GAC) (Homo sapiens, UniProt O94925).
T1 sequence (O94925 55-598 isoform O94925-3 limits assumed): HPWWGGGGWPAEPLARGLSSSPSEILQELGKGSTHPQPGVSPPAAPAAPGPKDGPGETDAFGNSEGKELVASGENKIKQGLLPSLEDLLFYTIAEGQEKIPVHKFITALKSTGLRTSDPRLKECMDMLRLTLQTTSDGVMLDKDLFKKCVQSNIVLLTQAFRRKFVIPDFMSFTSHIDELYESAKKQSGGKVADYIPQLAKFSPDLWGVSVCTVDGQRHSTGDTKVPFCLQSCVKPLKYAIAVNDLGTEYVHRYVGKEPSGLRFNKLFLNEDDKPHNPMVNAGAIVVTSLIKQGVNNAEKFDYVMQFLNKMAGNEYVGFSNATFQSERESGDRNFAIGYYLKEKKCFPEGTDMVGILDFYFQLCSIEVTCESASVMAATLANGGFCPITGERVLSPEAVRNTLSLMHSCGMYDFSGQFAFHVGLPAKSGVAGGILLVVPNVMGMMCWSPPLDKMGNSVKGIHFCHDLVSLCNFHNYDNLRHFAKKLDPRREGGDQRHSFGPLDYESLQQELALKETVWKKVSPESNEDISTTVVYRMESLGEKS
The assay can be described thus: GLS1 enzymatic activity assay (dual-coupled, Amplex UltraRed/resorufin). The assay is classed as biochemical. How it is done:
GLS1 Enzymatic Activity Assay
The inhibition of purified recombinant human GAC by varying concentrations of inhibitors is assessed via a dual-coupled enzymatic assay. The glutamate produced by the glutaminase reaction is used by glutamate oxidase to produce α-ketoglutarate, ammonia, and hydrogen peroxide, with this hydrogen peroxide subsequently being used by horseradish peroxidase to produce resorufin in the presence of Amplex UltraRed. The assay buffer consisted of 50 mM Hepes (pH 7.4), 0.25 mM EDTA and 0.1 mM Triton X-100. GAC was incubated with potassium phosphate (10 minutes at room temperature) prior to incubation with inhibitor (10 minutes at room temperature). The final reaction conditions were as follows: 2 nM GAC, 50 mM potassium phosphate, 100 mU/mL glutamate oxidase (Sigma), 1 mM glutamine (Sigma), 100 mU/mL horseradish peroxidase (Sigma), 75 μM Amplex UltraRed (Life Technologies), and 1% (v/v) DMSO. The production of resorufin was monitored on a Perkin Elmer Envision plate reader (excitation 530 nm, emission 590 nm) either in a kinetics or endpoint mode (at 20 minutes). IC50 values were calculated using a four-parameter logistic curve fit.

On to `O=C(Cc1cccnc1Cl)Nc1ccn(CCC(F)Cn2cc(C(=O)NCc3cccc(OC(F)(F)F)c3)nn2)c(=O)c1` (stereo not drawn) [Example 236, 1-(4-{4-[2-(2-chloropyridin-3-yl)acetamido]-2-oxo-1,2-dihydropyridin-1-yl}-2-fluorobutyl)-N-{[3-(trifluoromethoxy)phenyl]methyl}-1H-1,2,3-triazole-4-carboxamide], for which, in assay [1], the 50% effective concentration (EC50) fell in the range of 500 to 5000 nM. Also, the half-maximal inhibitory concentration (IC50) in assay [2] is < 100 nM.

With `O=C(NCc1cccc(OC(F)(F)F)c1)c1cn(CC(F)CCn2ccc(NC(=O)[C@H](O)c3ccccc3)cc2=O)nn1` (stereo partly drawn) [Example 223, 1-(2-fluoro-4-{4-[(2R)-2-hydroxy-2-phenylacetamido]-2-oxo-1,2-dihydropyridin-1-yl}butyl)-N-{[3-(trifluoromethoxy)phenyl]methyl}-1H-1,2,3-triazole-4-carboxamide], the EC50 in assay [1] is < 100 nM. In assay [2], the concentration for half-maximal inhibition (IC50) was < 100 nM.

As for `O=C(Nc1ccn(CCC(F)Cn2cc(C(=O)NCc3cc(C(F)(F)F)ccn3)nn2)c(=O)c1F)C(=O)c1ccccc1` (stereo not drawn) [Example 333, 1-{2-fluoro-4-[3-fluoro-2-oxo-4-(2-oxo-2-phenylacetamido)-1,2-dihydropyridin-1-yl]butyl}-N-{[4-(trifluoromethyl)pyridin-2-yl]methyl}-1H-1,2,3-triazole-4-carboxamide], in assay [1], the EC50 is < 100 nM. Moreover, the IC50 in assay [2] is < 100 nM.

As for `O=C(Cc1cccc(OC(F)(F)F)c1)Nc1ccc(CCCCn2ccc(NC(=O)[C@@H](O)c3ccccc3)nc2=O)nn1` [Example 78, (2S)-2-hydroxy-N-{2-oxo-1-[4-(6-{2-[3-(trifluoro-methoxy)phenyl]acetamido}pyridazin-3-yl)butyl]-1,2-dihydropyrimidin-4-yl}-2-phenylacetamide], the 50% effective concentration (EC50) in assay [1] is < 100 nM. The concentration for half-maximal inhibition (IC50) in assay [2] was < 100 nM.

Consider `N#CC1CCCN(C(=O)C(=O)Nc2ccn(CCC(F)Cn3cc(C(=O)NCc4cccc(OC(F)(F)F)c4)nn3)c(=O)c2F)C1` (stereo not drawn) [Example 420, 1-(4-{4-[2-(3-cyanopiperidin-1-yl)-2-oxoacetamido]-3-fluoro-2-oxo-1,2-dihydropyridin-1-yl}-2-fluorobutyl)-N-{[3-(trifluoromethoxy)phenyl]methyl}-1H-1,2,3-triazole-4-carboxamide], for which, in assay [1], the concentration giving a half-maximal response (EC50) was in the range of 500 to 5000 nM. Also, the IC50 in assay [2] is < 100 nM.

In assay [1], `CO[C@@H](C(=O)Nc1ccn(CCC(F)Cn2cc(C(=O)NCc3ccc(C)nc3)nn2)c(=O)c1F)c1ccccc1` (stereo partly drawn) [Example 313, 1-(2-fluoro-4-{3-fluoro-4-[(2R)-2-methoxy-2-phenylacetamido]-2-oxo-1,2-dihydropyridin-1-yl}butyl)-N-[(6-methylpyridin-3-yl)methyl]-1H-1,2,3-triazole-4-carboxamide] yielded an EC50 of 100 to 500 nM. Besides, the half-inhibitory concentration (IC50) in assay [2] was < 100 nM.

In turn, `CC(C)(C)OC(=O)Nc1ccn(CCCCn2cc(C(=O)NCc3cccc(OC(F)(F)F)c3)nn2)c(=O)c1` [Example 3, Tert-butyl(2-oxo-1-(4-(4-((3-(trifluoromethoxy)benzyl)carbamoyl)-1H-1,2,3-triazol-1-yl)butyl)-1,2-dihydropyridin-4-yl)carbamate] displayed a 50% effective concentration (EC50) in assay [1] of 100 to 500 nM. For the same compound, the half-maximal inhibitory concentration (IC50) in assay [2] is < 100 nM.

Turning to `O=C(Cc1cccc(OC(F)(F)F)c1)Nc1ccn(CCCCn2cc(C(=O)NCC3CCCCC3)nn2)c(=O)c1` [Example 41, N-(cyclohexylmethyl)-1-[4-(2-oxo-4-{2-[3-(trifluoro-methoxy)phenyl]acetamido}-1,2-dihydropyridin-1-yl)butyl]-1H-1,2,3-triazole-4-carboxamide], in assay [1], the half-maximal effective concentration (EC50) lay in the range of 500 to 5000 nM. The IC50 in assay [2] was < 100 nM.

As for `O=C(CC1CCOCC1)Nc1ccn(CCCCn2cc(C(=O)NCc3cccc(OC(F)(F)F)c3)nn2)c(=O)c1` [Example 48, 1-(4-{4-[2-(oxan-4-yl)acetamido]-2-oxo-1,2-dihydropyridin-1-yl}butyl)-N-{[3-(trifluoromethoxy)phenyl]methyl}-1H-1,2,3-triazole-4-carboxamide], in assay [1], the EC50 is 500 to 5000 nM. Besides, the IC50 in assay [2] was < 100 nM.

As for `CC1CN(CC(=O)Nc2ccn(CCC(F)Cn3cc(C(=O)NCc4cccc(OC(F)(F)F)c4)nn3)c(=O)c2)CCO1` (stereo not drawn) [Example 278, 1-(2-fluoro-4-{4-[2-(2-methylmorpholin-4-yl)acetamido]-2-oxo-1,2-dihydropyridin-1-yl}butyl)-N-{[3-(trifluoromethoxy)phenyl]methyl}-1H-1,2,3-triazole-4-carboxamide], the EC50 in assay [1] was in the range of 100 to 500 nM. For the same compound, in assay [2], the 50% inhibitory concentration (IC50) is < 100 nM.

For `O=C(Cc1cccc(OC(F)(F)F)c1)Nc1ccn(CCCCn2cc(C(=O)NCc3ccccc3)nn2)c(=O)c1` [Example 51, N-benzyl-1-[4-(2-oxo-4-{2-[3-(trifluoromethoxy)phenyl]acetamido}-1,2-dihydropyridin-1-yl)butyl]-1H-1,2,3-triazole-4-carboxamide], in assay [1], the EC50 was 500 to 5000 nM. Besides, in assay [2], the half-inhibitory concentration (IC50) is < 100 nM.

Turning to `Cc1ccc(CNC(=O)c2cn(CCC(F)Cn3ccc(NC(=O)Cc4ccccc4)cc3=O)nn2)cn1` (stereo not drawn) [Example 148, 1-{3-fluoro-4-[2-oxo-4-(2-phenylacetamido)-1,2-dihydropyridin-1-yl]butyl}-N-[(6-methylpyridin-3-yl)methyl]-1H-1,2,3-triazole-4-carboxamide], in assay [1], the half-maximal effective concentration (EC50) was 500 to 5000 nM. In assay [2], the IC50 is < 100 nM.

As for `Cn1cc(CC(=O)Nc2ccn(CCCCn3cc(C(=O)NCc4cccc(OC(F)(F)F)c4)nn3)c(=O)c2)cn1` [Example 46, 1-(4-{4-[2-(1-methyl-1H-pyrazol-4-yl)acetamido]-2-oxo-1,2-dihydropyridin-1-yl}butyl)-N-{[3-(trifluoromethoxy)phenyl]methyl}-1H-1,2,3-triazole-4-carboxamide], the EC50 in assay [1] was > 5000 nM. For the same compound, in assay [2], the IC50 was 100 to 500 nM.

`CC(=O)Nc1ccn(CCCCc2ccc(NC(=O)Cc3ccccc3)nn2)c(=O)n1` [Example 92, N-{6-[4-(4-acetamido-2-oxo-1,2-dihydropyrimidin-1-yl)butyl]pyridazin-3-yl}-2-phenylacetamide] gave an EC50 in assay [1] of 500 to 5000 nM. In addition, the half-inhibitory concentration (IC50) in assay [2] is < 100 nM.

In assay [1], `O=C(Cc1ccccc1)Nc1ccn(CCCCc2nnc(NC(=O)Cc3ccccn3)s2)c(=O)c1` [Example 1, N-(2-oxo-1-(4-(5-(2-(pyridin-2-yl)acetamido)-1,3,4-thiadiazol-2-yl)butyl)-1,2-dihydropyridin-4-yl)-2-phenylacetamide] returned an EC50 of 500 to 5000 nM. Besides, the half-maximal inhibitory concentration (IC50) in assay [2] is < 100 nM.

With `O=C(NCc1cc(C(F)(F)F)ccn1)c1cn(CC(F)CCn2ccc(COc3cccc(Cl)c3)cc2=O)nn1` (stereo not drawn) [Example 481, 1-{4-[4-(3-chlorophenoxymethyl)-2-oxo-1,2-dihydropyridin-1-yl]-2-fluorobutyl}-N-{[4-(trifluoromethyl)pyridin-2-yl]methyl}-1H-1,2,3-triazole-4-carboxamide], the EC50 in assay [1] lay in the range of 100 to 500 nM. The IC50 in assay [2] was < 100 nM.

For the compound `CC(C)(C)OC(=O)N1CCN(CC(=O)Nc2ccn(CCC(F)Cn3cc(C(=O)NCc4cccc(OC(F)(F)F)c4)nn3)c(=O)c2F)CC1` (stereo not drawn) [Example 296, tert-butyl 4-{[(3-fluoro-1-{3-fluoro-4-[4-({[3-(trifluoro-methoxy)phenyl]methyl}carbamoyl)-1H-1,2,3-triazol-1-yl]butyl}-2-oxo-1,2-dihydropyridin-4-yl)carbamoyl]methyl}piperazine-1-carboxylate], the EC50 in assay [1] was < 100 nM. For the same compound, the IC50 in assay [2] was < 100 nM.

For the compound `O=C(CN1CCCC(F)C1)Nc1ccn(CCC(F)Cn2cc(C(=O)NCc3cccc(OC(F)(F)F)c3)nn2)c(=O)c1` (stereo not drawn) [Example 275, 1-(2-fluoro-4-{4-[2-(3-fluoropiperidin-1-yl)acetamido]-2-oxo-1,2-dihydropyridin-1-yl}butyl)-N-{[3-(trifluoromethoxy)phenyl]methyl}-1H-1,2,3-triazole-4-carboxamide], in assay [1], the 50% effective concentration (EC50) was < 100 nM. The half-inhibitory concentration (IC50) in assay [2] was < 100 nM.
